Laboratory results as given in patent US11911353B2, “Fatty acid synthase inhibitor and application thereof” (Jiangnan University, priority 2019, dated 2024).

Tests used:
Type in all cases: cell-based
[1] = tested on: colon cancer cells HCT116; test: MTT tumor proliferation IC50, HCT116
Excerpt: (§1) IC50 (half maximal inhibitory concentration) refers to the half inhibitory concentration of a measured antagonist. It can indicate that a certain concentration of a certain drug or substance (inhibitor) induces tumor cell apoptosis by 50%, and this concentration is referred to as 50% inhibitory concentration, namely, the corresponding concentration when the ratio of apoptotic cells to the total number of cells is equal to 50%. The IC50 value can be used to measure the ability of a drug to induce apoptosis, that is, the higher the inducing ability, the lower the value, which also can indicate the tolerance degree of a certain cell to a drug on the contrary. • (1) Cells in the logarithmic phase are collected, the concentration of a cell suspension is adjusted, it is appropriate to place 100 μl cells in each well of a 96-well plate, the cells are inoculated into the plate to adjust the density of to-be-detected cells to be 1000-10000 cells/well, and edge wells are filled with sterile PBS. • (2) The cells are incubated under 5% CO2 at 37° C., an original culture medium is discarded after complete cell adherence, 200 μl of 1 wt % FBS culture medium containing 0.01 μM, 0.1 μM, 1 μM, 5 μM and 10 μM compound I-1 or cerulenin is added into each well, and there are 6 wells run in duplicate. An equal volume of DMSO is added as a negative control. • (3) After 72 hours of incubation, the cells are photographed for state recording, an original culture medium is discarded, and 100 μl of serum-free culture medium containing 0.5 mg/ml MTT (3-(4,5-dimethylthiazole-2)-2,5-diphenyltetrazolium bromide, trade name thiazolyl blue) is added into each well. • (4) After 2-4 hours of incubation, an original culture medium is discarded, and 150 μl of dimethyl sulfoxide (DMSO) is added into each well and shaken at 300 rpm for 10 minutes to fully dissolve purple crystals. • (5) The absorbance of each well at OD570 nm is measured by an enzyme-linked immunodetection instrument, the absorbance at OD630 nm is used as a reference, dual-wavelength measurement is carried out, and survival rate results are calculated according to the following formula: Cell survival rate=(OD570−OD630)/(OD570 negative control−OD630 negative control);
(§2) wherein, OD570: OD570 value of each treatment group; OD630: OD630 value of each treatment group; OD570 control: OD570 value of the negative control group; OD630 control: OD630 value of the negative control group. • (6) The survival rate results are processed with graphpad 6.0 software according to the concentration gradient, the analysis mode is log (inhibitor) vs. Nonlinear regression (curve fit), and the calculated IC50 value is expressed as x+/−SD.
(§3) The FASN enzyme activity measurement method shown in Experimental Example 18 is used to detect the effects of different substances on FASN enzyme activity. The method shown in Experimental Example 19 is used to detect the effects of different substances on the proliferation of tumor cells, cerulenin is used as a control, and the inhibition rates (%) of different substances on FASN enzyme activity and inhibition rates (IC50 nM) on tumor proliferation are calculated.

[2] = molecular target: T1, fatty acid synthase (FASN) in colon cancer cells HCT116 (Homo sapiens, UniProt P49327); test: FASN enzyme activity detection in treated HCT116 cells (NADPH absorbance at 340 nm); settings: for inhibition at 20 µM: HCT-116, 4 hours of incubation, read-out: FASN enzyme activity inhibition rate (%)
T1 construct: endogenous in cells; host or cells: HCT116 colon cancer cells
T1 sequence (P49327 whole entry): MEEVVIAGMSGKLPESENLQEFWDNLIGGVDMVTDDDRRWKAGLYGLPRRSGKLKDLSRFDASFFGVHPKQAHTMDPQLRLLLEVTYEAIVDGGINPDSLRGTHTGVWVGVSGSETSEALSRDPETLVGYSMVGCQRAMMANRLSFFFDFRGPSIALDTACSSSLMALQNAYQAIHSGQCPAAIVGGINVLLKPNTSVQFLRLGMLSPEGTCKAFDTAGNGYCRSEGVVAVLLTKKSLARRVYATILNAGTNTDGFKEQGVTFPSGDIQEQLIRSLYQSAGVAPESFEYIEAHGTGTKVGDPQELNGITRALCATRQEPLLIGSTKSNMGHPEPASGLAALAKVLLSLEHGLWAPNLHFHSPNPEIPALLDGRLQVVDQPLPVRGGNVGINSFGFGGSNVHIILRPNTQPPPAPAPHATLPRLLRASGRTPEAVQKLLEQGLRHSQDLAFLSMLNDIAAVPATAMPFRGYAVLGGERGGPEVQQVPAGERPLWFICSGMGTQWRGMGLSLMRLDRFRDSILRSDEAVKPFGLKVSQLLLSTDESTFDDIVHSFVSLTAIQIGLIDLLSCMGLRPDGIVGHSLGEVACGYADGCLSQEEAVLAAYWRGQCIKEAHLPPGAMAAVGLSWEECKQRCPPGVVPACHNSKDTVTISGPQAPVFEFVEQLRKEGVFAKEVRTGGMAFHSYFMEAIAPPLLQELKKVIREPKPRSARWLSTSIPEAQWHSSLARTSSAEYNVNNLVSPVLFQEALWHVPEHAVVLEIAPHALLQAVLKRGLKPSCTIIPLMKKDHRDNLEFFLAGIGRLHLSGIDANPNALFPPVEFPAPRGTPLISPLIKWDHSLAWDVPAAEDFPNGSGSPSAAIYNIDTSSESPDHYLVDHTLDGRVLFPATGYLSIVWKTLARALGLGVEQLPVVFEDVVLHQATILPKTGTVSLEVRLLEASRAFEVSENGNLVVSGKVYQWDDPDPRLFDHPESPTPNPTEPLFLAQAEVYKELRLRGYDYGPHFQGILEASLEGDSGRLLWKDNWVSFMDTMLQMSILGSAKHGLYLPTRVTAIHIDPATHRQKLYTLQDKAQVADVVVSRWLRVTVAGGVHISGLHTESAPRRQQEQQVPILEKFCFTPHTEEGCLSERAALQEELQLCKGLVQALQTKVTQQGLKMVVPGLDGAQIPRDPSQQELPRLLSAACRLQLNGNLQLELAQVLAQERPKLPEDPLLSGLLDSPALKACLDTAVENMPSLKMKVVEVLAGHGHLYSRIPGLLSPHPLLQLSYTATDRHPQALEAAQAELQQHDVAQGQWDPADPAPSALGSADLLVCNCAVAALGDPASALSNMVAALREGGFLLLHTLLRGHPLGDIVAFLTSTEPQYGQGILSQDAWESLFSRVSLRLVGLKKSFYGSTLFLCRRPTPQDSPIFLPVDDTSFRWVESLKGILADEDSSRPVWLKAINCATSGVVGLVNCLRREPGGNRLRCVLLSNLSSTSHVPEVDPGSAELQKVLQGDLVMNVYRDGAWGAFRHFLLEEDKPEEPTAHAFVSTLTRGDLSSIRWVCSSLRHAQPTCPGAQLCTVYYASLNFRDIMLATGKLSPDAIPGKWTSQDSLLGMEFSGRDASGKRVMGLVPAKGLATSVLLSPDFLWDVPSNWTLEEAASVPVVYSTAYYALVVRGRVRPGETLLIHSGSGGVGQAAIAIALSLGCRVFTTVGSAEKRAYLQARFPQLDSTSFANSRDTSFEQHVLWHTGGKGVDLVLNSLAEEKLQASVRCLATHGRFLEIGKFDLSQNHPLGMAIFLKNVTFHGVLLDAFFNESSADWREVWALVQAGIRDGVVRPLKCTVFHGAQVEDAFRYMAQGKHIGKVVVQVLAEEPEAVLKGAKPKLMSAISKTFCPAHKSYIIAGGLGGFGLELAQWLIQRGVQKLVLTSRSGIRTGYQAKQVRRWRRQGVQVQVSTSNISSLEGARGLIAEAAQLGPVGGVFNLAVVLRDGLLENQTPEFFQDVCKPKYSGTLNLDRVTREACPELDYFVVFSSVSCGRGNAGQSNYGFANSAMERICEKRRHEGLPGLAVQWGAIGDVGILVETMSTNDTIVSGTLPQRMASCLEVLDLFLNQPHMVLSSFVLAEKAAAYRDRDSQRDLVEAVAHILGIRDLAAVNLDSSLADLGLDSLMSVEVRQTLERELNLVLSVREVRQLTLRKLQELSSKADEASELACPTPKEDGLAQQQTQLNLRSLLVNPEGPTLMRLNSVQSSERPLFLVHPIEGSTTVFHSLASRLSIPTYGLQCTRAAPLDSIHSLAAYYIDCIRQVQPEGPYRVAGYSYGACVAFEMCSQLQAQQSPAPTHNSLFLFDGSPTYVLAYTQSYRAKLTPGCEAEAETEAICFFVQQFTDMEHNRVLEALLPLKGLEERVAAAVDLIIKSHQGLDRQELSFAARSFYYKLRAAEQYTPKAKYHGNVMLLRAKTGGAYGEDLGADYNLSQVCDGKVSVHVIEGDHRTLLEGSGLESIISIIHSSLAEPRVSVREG

[3] = tested on: prostate cancer cells PC-3; test: MTT tumor proliferation IC50, PC-3; settings: 72 hours of incubation
Excerpt: as §1, §2, §3

[4] = tested on: tumor cells 22RV1, PC-3, HT-29, Hela, Hep G2, CaCo-2 and HCT116; test: MTT proliferation of various tumor cells at single concentration (FIG. 2); settings: 10 μM, 72 hours, 7 different tumor cells
Excerpt: Cell survival rate=(OD570−OD630)/(OD570 negative control−OD630 negative control); wherein, OD570: OD570 value of each treatment group; OD630: OD630 value of each treatment group; OD570 control: OD570 value of the negative control group; OD630 control: OD630 value of the negative control group.

[5] = Homo sapiens, HCT-116, 72 hours of incubation

Compound	IC50 [1, 5]	inhibition at 20 µM [2]	IC50 [3]	IC50 ([1]; 72 hours of incubation)	FASN enzyme activity inhibition rate (%) ([2]; 20 μM, 4 hours of incubation)	effect on proliferation of tumor cells [4]
C=C1C(=O)OC(CCCCCCCC)C1C(=O)O (centres unmarked) [Compound C75, C75]						no significant effect on the proliferation of some tumor cells
5-(4-bromophenylamino)-5-oxopentanoic acid [Intermediate 1]			15 ± 1.3 nM	19 ± 2.1 nM	31.87%	
CCOC(=O)CCCC(=O)Nc1ccc(Br)cc1 [Intermediate 2, Ethyl 5-(4-bromophenylamino)-5-oxopentanoate]	22 ± 3.1 nM	22.2%	18 ± 2.5 nM			
C/C=C/C/C=C/CCC(=O)[C@H]1O[C@H]1C(N)=O [Cerulenin, cerulenin, reference compound]	29 ± 3.2 nM	21.3%	18 ± 2.7 nM			no significant effect on the proliferation of some tumor cells

Further lines, with some results ahead:

IC50 [1, 5]	inhibition at 20 µM [2]	IC50 [3]	IC50 ([1]; 72 hours of incubation)	FASN enzyme activity inhibition rate (%) ([2]; 20 μM, 4 hours of incubation)	Compound	effect on proliferation of tumor cells [4]
21 ± 1.6 nM	30.7%	16 ± 2.9 nM			COc1ccc(Br)cc1CNC(=O)NCCCC(=O)Nc1ccc(Br)cc1 [Compound I-2]	
20 ± 3.5 nM	35.2%	16 ± 1.7 nM			O=C(CCC(=O)Nc1ccccc1)/N=C/Cc1ccccc1 [Compound I-8]	
19 ± 1.9 nM	37.7%	15 ± 2.1 nM			O=C(CCC(=O)Nc1ccccc1)NC(=O)c1ccccc1 [Compound I-7]	
14 ± 1.7 nM	49%	11 ± 1.8 nM			O=C(CCCC(=O)Nc1ccc(Br)cc1)NNC(=O)c1cc(Br)ccc1O [Compound I-4]	
17 ± 2.7 nM	41.9%	15 ± 1.8 nM			O=C(CCC(=O)Nc1ccccc1)/N=C/c1ccccc1 [Compound I-6]	
15 ± 2.5 nM	41.2%	14 ± 2.8 nM			O=C(CCCNC(=O)NCc1cc(Br)ccc1O)Nc1ccc(Br)cc1 [Compound I-3]	
